Assay results published in ChEMBL document CHEMBL5726342, “NMDA receptor modulators and uses related thereto” (2017).

Test: Inhibition Assay: Two-electrode voltage-clamp recordings were made from Xenopus laevis oocytes expressing recombinant rat GluN1/GluN2A, GluN1/GluN2B, GluN1/GluN2C, GluN1/GluN2D, GluA1, or GluK2 receptors following injection of 5-10 ng of cRNA synthesized according to manufacturers' protocols (Ambin, mMessage, mMachine). cDNAs used were rat GluN1-1a (GenBank accession numbers U11418 and U08261; hereafter GluN1), GluN2A (D13211), GluN2B (U11419), GluN2C (M91563), GluN2D (L31611), GluA1 (X17184), GluK2 (Z11548). The current under voltage-clamp was recorded during perfusion with recording solution containing (in mM) 90 NaCl, 1.0 KCl, 0.5 BaCl2, 0.005 EDTA, and 10 HEPES at pH 7.4 (23° C.). Glass micropipettes had resistances of 0.3-1.0 MS2 and were filled with 3.0 M KCl. The membrane potential was clamped at −40 mV during the experiment. Recordings were digitized at 10 Hz and analyzed off line. 20 mM stock solutions of test compounds in 100% DMSO were made and diluted to obtain the final concentration; final DMSO content was 0.05-0.5% (vol/vol). Oocytes expressing GluK2 homomeric receptors were first treated with 10 μM concanavalin A (10 minutes). NMDA receptor responses were obtained by challenging oocytes with 100 μM glutamate plus 30 μM glycine; GluA1 and GluK2 receptors responses were recorded during application of 100 μM glutamate. […]
Assay type: cell-based

IC50 [µM] | Structure (SMILES)
9 | CCc1ccc(C2C(C(=O)c3ccncc3)=C(O)C(=O)N2CCc2c[nH]c3cc(C)ccc23)cc1 (configuration not stated)
7 | CCc1ccc(C2C(C(=O)c3cccnc3)=C(O)C(=O)N2CCc2c[nH]c3cc(C)ccc23)cc1 (configuration not stated)
